Results taken from patent publication US12416008B2, “Compositions and methods of use for small-molecule regulation of CRISPR-Cas9 activity using RNA aptamers” (priority 2019, dated 2025).
Marks after values point to notes of the source that are not given here.

Key:
[1] = test system: galK (site 1) and xylA (site 2); assay: multiplexed gene editing with theophylline-regulated GU19-agRNA and 3MX-regulated A9-agRNA on one plasmid; format: cell-based, E. coli; conditions: 3-hour induction with 1 mM of a single ligand
Description: A plasmid was designed that expressed a theophylline-regulated GU19-agRNA targeting galK1 and a 3-methylxanthine (3MX)-regulated A9-agRNA targeting the xylA gene. […] The plasmid construct was then used for a 3-hour induction with either 1 mM theophylline, 1 mM 3MX or a combination of the two and the transformed bacteria were plated on MacConkey agar that contained either galactose, xylose or both to assay editing of the galK and xylA genes with the red/white screen (FIG. 3D, FIG. 11).
For the purpose of first adding theophylline and later 3MX to independently induce two different agRNAs, the protocol was slightly modified. First, the bacteria were prepared and transformed as in the original protocol, 1 mM theophylline was added to the media and the culture was shaken at 30° C. for three hours. Then, the culture was heat-shocked again at 42° C. for 15 minutes to induce expression of the lambda-red proteins again and 1 mM 3MX was added to the media. The culture was shaken at 37° C. for three hours and then plated.

galK 1 site [2] = assay: red/white colony screen of editing efficiency at the galK 1 site (CREATE recombineering); format: cell-based, E. coli MG1655; conditions: galK1 site; agRNAs A9 and GU19 (FIG. 2A)
[3] = biological target: isolated aptamer (theophylline aptamer); conditions: theophylline binding; cited from earlier work
MGλ9 strain = assay: transformation and editing efficiency, agRNAs activated with theophylline 1 hour after transformation (aptamer-protocol); format: cell-based, E. coli; conditions: theophylline added 1 hour after transformation; for increase in number of transformants: versus wt gRNA
Description: FIGS. 3A-3D show aptamer-gRNAs enable high-throughput genome editing. FIG. 3A is a schematic showing the workflow of the aptamer-controlled gene editing. […] CFUs are colony forming units μg-1 DNA and per 4 mL of recovery media. […] Each dot represents a biological replicate and error bars indicate standard deviation from the mean. FIG. 3C is a schematic of the plasmid design used to enable multiplexed gene editing. The individual homology arms and agRNAs are identical to the ones previously described for the single-edit experiments. […] The values represent the average of three biological replicates.
Equipped with temporally controllable agRNAs, the gene editing technology CREATE^10 was optimized. One major drawback of CRISPR-mediated bacterial gene editing technologies is cell death caused by dsDNA cuts^10, despite overexpression of λ-red proteins to increase the frequency of homologous repair. Without wishing to be bound by theory, it is hypothesized that the stress of transformation combined with rapid generation of dsDNA breaks synergistically leads to a high level of cell death. […] Although a low transformation efficiency is not a significant issue when creating a single edit with a defined sgRNA, it dramatically impacts the ability to transform a library of sgRNA plasmids to generate a population of bacteria with different edits. In this process, a portion of gRNAs from the library is expected to be non-functional due to errors in oligonucleotide synthesis, sgRNA misfolding, or inefficient targeting.
LB containing kanamycin and chloramphenicol was inoculated with MGλ9 cells and grown overnight at 30° C. The stationary culture was diluted 100 fold in LB, containing chloramphenicol and kanamycin and grown to an OD600=0.4-0.6 in 25 mL LB. Then, the culture was washed in two volumes of ice-cold deionized water, resuspended in 500 μl deionized water and 50 μl of the cell suspension was electroporated with 200 ng of a CREATE plasmid that encodes gRNA and homology template. The transformants were recovered in 4 mL of LB, containing 0.2% arabinose and shaken at 30° C. for 1 hour. The culture was heat-shocked in a shaking waterbath at 42° C. for 15 minutes and 1 mM theophylline or 1 μM ATC was added to the culture. The culture was shaken at 37° C. for 3 hours before plating on MacConkey Agar. To estimate the number of cfu, aliquots were plated on LB agar 1 hour after transformation.

galK 1 site [4] = assay: red/white colony screen of editing efficiency at the galK 1 site (CREATE recombineering); format: cell-based, E. coli MG1655; conditions: for Editing Efficiency 1 mM Theo: induced for 3 hours with 1 mM theophylline; for Editing Efficiency no Theo: no theophylline, 3 hours recovery
Description: Candidates from this enriched library were analyzed to inform an improved library design. After three selection/counterselection steps, cells were plated on M63 selection medium^20 and 150 colonies were picked. Each isolated candidate was then transformed into unedited E. coli to screen for theophylline-responsive constructs using a red/white colony assay to quantify the percentage of edited bacteria. Colonies with an unedited galK site appear red whereas edited colonies appear white (FIG. 5). The percentage of white colonies is considered the editing efficiency. Gene editing was induced as previously described with or without adding theophylline and the editing efficiencies were compared.
The protocol established by Garst et al was mainly followed. LB containing kanamycin and chloramphenicol was inoculated with MGλ9 cells and grown overnight at 30° C. The stationary culture was diluted 100 fold in LB, containing chloramphenicol, kanamycin and 0.2% arabinose and grown to an OD600=0.4-0.6 in 25 mL LB. The culture was heat-shocked in a shaking waterbath at 42° C. for 15 minutes to induce expression of the lambda-red proteins from pSIM5. Then, the culture was washed in two volumes of ice-cold deionized water, resuspended in 500 μl deionized water and 50 μl of the cell suspension was electroporated with 200 ng of a CREATE plasmid that encodes gRNA and homology template. The transformants were recovered in 4 mL of LB, containing 0.2% arabinose and optionally 1 mM theophylline or 1 μM anhydrotetracycline (ATC), and shaken at 37° C. for 3 hours before plating on MacConkey Agar. To estimate the number of cfu, aliquots were plated on LB agar 1 hour after transformation.
(§1) In order to assess the frequency of gene editing, a red/white screen was used to visualize the introduction of a stop codon into the galK gene by CREATE. The original CREATE protocol was used for inducing gene editing and after 3 hours of recovery (with or without the agRNA ligand) a series of dilutions of the cultures were plated on MacConkey Agar plates containing 1% galactose. Bacterial colonies with a mutated galK* site appear white on the plates, whereas non-edited colonies appear red. The editing efficiency could be calculated by dividing the number of edited colonies over the total number of colonies. By comparing the editing efficiency in presence versus absence of the ligand, a dynamic range of the in vivo activity could be determined.
When screening the enriched libraries for switchable constructs, the transformants were recovered in 4 mL of LB broth, a dilution series was plated for every construct and the experiment was only carried out once due to the large volume of colonies screened (˜250 in total). When the constructs A9 and GU19 were characterized in detail, triplica of the experiment were carried out.

galK1 site = assay: co-transformation of targeting gRNA plasmid with non-targeting gRNA plasmid (simulated library); conditions: for # of unedited colonies carrying non-targeting gRNA plasmid: 16 unedited colonies picked, 20 ng non-targeting + 180 ng targeting plasmid, 1 mM theophylline; for percentage of edited cells: plasmid mixture 90% targeting galK1, 10% non-targeting (eGFP) gRNA
xylA gene = assay: red/white screen of editing at the xylA gene; format: cell-based, E. coli; conditions: 1 mM theophylline
Description: (§2) Promising agRNA constructs were analyzed in further detail. […] The xylA gene was targeted with these 17 agRNAs to test whether a different spacer sequence affects the performance. Editing was quantified with the same red/white screen. […] To confirm sequence independence of those two agRNAs, they were used to edit three more alternative sites at the galK gene. […] Sequencing confirmed that the phenotypic change in the assay corresponded to a designed genomic edit (FIG. 7). The observation that a number of agRNAs only act at the selected galK1 site highlights that the CRISPR-Cas9 system can be selected to act at a single sequence, a feature that could be exploited for reducing off-target effects.
as §1, with “Bacterial colonies with a mutated galK* site appear white on the plates, whereas non-edited colonies appear red.” left out

[5] = biological target: T1, Streptococcus pyogenes Cas9 (Streptococcus pyogenes serotype M1, UniProt Q99ZW2); assay: electrophoretic mobility shift assay (EMSA) of Cas9 binding to gRNAs; conditions: presence or absence of 250 μM theophylline
T1 construct: host or cells: E. coli BL21 (DE3) Rosetta
T1 sequence (Q99ZW2 whole entry): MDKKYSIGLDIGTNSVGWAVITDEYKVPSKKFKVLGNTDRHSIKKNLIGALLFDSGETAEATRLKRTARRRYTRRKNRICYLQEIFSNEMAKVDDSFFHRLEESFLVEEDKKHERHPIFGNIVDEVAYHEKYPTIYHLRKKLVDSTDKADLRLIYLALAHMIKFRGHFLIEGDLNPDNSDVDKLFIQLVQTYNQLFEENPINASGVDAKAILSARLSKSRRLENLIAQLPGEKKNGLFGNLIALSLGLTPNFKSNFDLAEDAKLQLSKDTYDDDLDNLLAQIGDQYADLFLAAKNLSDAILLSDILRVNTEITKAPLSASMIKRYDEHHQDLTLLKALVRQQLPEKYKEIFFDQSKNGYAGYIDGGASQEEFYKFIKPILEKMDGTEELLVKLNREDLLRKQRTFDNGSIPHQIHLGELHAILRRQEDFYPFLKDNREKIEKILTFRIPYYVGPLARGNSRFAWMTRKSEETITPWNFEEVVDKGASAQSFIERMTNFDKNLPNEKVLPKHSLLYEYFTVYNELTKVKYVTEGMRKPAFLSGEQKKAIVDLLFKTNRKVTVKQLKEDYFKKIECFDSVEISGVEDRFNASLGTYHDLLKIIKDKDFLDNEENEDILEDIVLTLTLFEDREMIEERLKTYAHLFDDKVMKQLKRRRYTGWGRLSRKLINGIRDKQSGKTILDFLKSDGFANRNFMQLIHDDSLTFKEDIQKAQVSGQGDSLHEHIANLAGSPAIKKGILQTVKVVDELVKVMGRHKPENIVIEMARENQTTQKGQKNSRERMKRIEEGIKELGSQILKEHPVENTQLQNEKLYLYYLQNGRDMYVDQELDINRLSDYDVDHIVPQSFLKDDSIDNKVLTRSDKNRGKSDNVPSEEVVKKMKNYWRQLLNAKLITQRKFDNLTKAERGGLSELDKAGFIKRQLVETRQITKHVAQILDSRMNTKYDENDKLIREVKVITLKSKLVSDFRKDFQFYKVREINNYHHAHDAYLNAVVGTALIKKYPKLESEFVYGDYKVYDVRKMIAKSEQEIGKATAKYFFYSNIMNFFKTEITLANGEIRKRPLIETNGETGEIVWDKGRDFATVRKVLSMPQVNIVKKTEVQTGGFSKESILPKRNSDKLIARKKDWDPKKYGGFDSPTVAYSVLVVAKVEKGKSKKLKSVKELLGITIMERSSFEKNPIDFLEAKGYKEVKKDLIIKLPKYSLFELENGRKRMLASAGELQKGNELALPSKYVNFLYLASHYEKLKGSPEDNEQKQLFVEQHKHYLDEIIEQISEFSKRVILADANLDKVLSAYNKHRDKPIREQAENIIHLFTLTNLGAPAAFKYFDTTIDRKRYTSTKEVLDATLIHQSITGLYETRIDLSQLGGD

[6] = test system: alternative sites at the galK gene; assay: editing at three more alternative sites at the galK gene; format: cell-based, E. coli; conditions: with or without 1 mM theophylline
Description: as §2
as §1, with “Bacterial colonies with a mutated galK* site appear white on the plates, whereas non-edited colonies appear red.” left out

Molecule | editing of galK and xylA upon induction (in words) [1] | dependence of editing efficiency on theophylline concentration and induction time (galK 1 site [2]) | Kd [3] | editing efficiencies (MGλ9 strain) | increase in number of transformants (MGλ9 strain) | Editing Efficiency 1 mM Theo (galK 1 site [4]) | Editing Efficiency no Theo (galK 1 site [4]) | # of unedited colonies carrying non-targeting gRNA plasmid (galK1 site) | percentage of edited cells (galK1 site) | editing efficiency at xylA compared with galK1 (in words) (xylA gene) | apparent binding affinity to the Cas9 protein [5] | targetability of alternative galK sites (in words) [6]
Cn1c(=O)[nH]c(=O)c2nc[nH]c21 [3MX, 3-methylxanthine] | induced mostly editing of xylA and to a lesser extent galK | – | – | – | – | – | – | – | – | – | – | –
Cn1c(=O)c2[nH]cnc2n(C)c1=O [theophylline] | induced editing of the galK gene but not the xylA gene | increased with the concentration of theophylline and induction time | 400 nM | – | – | – | – | – | – | – | – | –
A9: agRNA cassette TGAAGGCCGCAACA, SEQ ID NO: 5 (chemistry not given here) | – | – | – | ~80% | 10^4 fold | 81%** | 9%** | 9/16 | 81% | editing efficiency at xylA similar to the galK1 site used during selection | the same apparent binding affinity to the Cas9 protein as the wild type gRNA, independent of theophylline | Only one of those sites was not targetable
GU19: agRNA cassette GATCGGCCATAGAT, SEQ ID NO: 51 (chemistry not given here) | – | – | – | ~80% | 10^4 fold | 64%** | 3%** | 6/16 | 63% | editing efficiency at xylA similar to the galK1 site used during selection | the same apparent binding affinity to the Cas9 protein as the wild type gRNA, independent of theophylline | more site-dependent, but also showed less background activity
